Assay results from patent publication US7659113B2 (priority 2002, dated 2010).
“Also recorded” adds a separate entry of the source.

Assays:
[1] = tested on: VSV-G pseudotyped SIN-6.1CZW vector; type: cell-based
[2] = tested on: FPV HA/M2 pseudotyped SIN-6.1CZW vector; type: cell-based
influenza virus = details: cited from earlier work
VSV = details: cited from earlier work
wild type FPV M2 = wild type FPV M2 (Influenza A virus, UniProt P03492); assay: cell-based; type: cell-based
[3] = tested on: VSV-G pseudotyped SIN-6.1CZW vector; type: cell-based; remark: listed apart in the source

wild type FPV M2, sequence (P03492 whole entry, looked up): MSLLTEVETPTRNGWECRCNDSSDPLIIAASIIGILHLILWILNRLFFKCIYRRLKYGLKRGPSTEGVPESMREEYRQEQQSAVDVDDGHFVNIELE

SMILES: NC12CC3CC(CC(C3)C1)C2 [amantadine]
- effect on pseudotyping of SIN-6.1CZW by VSV-G [1]: did not affect
- effect on gene transfer step of HA pseudotyped vector [2]: affected the gene transfer step; also recorded: Higher doses were required to inhibit transduction than to inhibit vector production
- inhibition of influenza virus replication in cell culture (influenza virus): effective inhibitor
- VSV replication, sensitivity to amantadine (VSV): refractory
- effect on vector production (wild type FPV M2): inhibits the augmentation of HA pseudotyping by M2; also recorded: potent dose-dependent effect
- inhibition at 5 µM (wild type FPV M2; read-out: inhibition of M2 augmented vector production): 70%
- effect on gene transfer by VSV-G pseudotyped vector [3]: did not affect gene transfer
